# Experimental data from PMC3221659, “Targeting of Mitochondria-Endoplasmic Reticulum by Fluorescent Macrocyclic Compounds” (PLoS ONE, 2011).
# Columns and labels:
# NHDF cells [1] = assay: Annexin V-FITC / PI flow cytometry, NHDF; format: cell-based, human; conditions: 10 µM, 48 h
# Procedure: For this purpose, the fluorescein isothiocyanate (FITC)-conjugated annexin V - PI (propidium iodide) flow cytometry assay is employed, allowing the identification of apoptosis and necrosis. Thus, MCF-7 and NHDF cells are treated with two concentrations (10 nM and 10 µM) of each compound for 48 h. These concentrations are […], except for [32]phen2N4 on MCF-7 cells.
# To detect apoptosis, cells were stained with propidium iodide (PI) and fluorescein isothiocyanate (FITC)-conjugated annexin V using an Annexin V-FITC Apoptosis Detection Kit (BD PharmingenTM). Briefly, cells were seeded in […] flasks in the culture medium containing FBS and after reaching approximated 90% confluence they were treated with two concentrations (10 nM and 10 µM) of each compound for 48 h, with untreated cells serving as control. At the end of incubation, cells were harvested by trypsin-EDTA treatment, washed twice with cold PBS and resuspended with 1× binding buffer (1 mL). […] After the addition of […] of 1× binding buffer, stained cells were subjected to fluorescence-activated cell sorter (FACS) analysis using a FACSCalibur flow cytometer. The FITC fluorescence was measured between 515 and 545 nm and the PI fluorescence between 564 and 606 nm. […]
# [2] = system: human breast cancer cells (MCF-7); assay: MTT cytotoxicity assay, MCF-7; format: cell-based; conditions: MCF-7 cells; for IC50: Homo sapiens, MCF7, MTT, 48 h
# Procedure: (§1) One of the key issues to consider a probe suitable for living cells use is its cellular toxicity. In this context, the cytotoxicity of the five synthesised macrocyclic compounds is assessed by a 3-(4,5-dimethylthiazol-2-yl)-2,5-diphenyltetrazolium bromide (MTT) assay. The cytotoxicity of the starting material 1,10-phenanthroline-2,9-dicarbaldehyde is measured by MTT assay for comparison. In this quantitative colorimetric assay, the amount of MTT reduced by cells to its formazan derivative is quantified spectroscopically at 570 nm and is considered equivalent to the number of viable cells. The cytotoxicity of the referred compounds is evaluated using human breast cancer cells (MCF-7), non-cancerous human dermal fibroblasts (NHDF) and human adult dermal skin fibroblasts (designated P14) obtained from the breast biopsy specimen of a person diagnosed with breast cancer. All cells have been exposed to the six different compounds in five concentrations ranging from 10 nM to 100 µM during a period of exposition of 48 h.
# (§2) Cell viability was studied quantifying the extent of the reduction of 3-(4,5-dimethylthiazol-2-yl)-2,5-diphenyltetrazolium bromide (MTT) according to a previously described procedure. Briefly, cells were seeded in 48-well plates (0.5×10^4 cells/well) in the culture medium containing FBS and after 48 h they were treated with five concentrations (10 nM and 100 nM, 1 µM, 10 µM and 100 µM) of the different compounds for 48 h, with untreated cells serving as control. At the end of incubation the media in wells were removed and replaced with fresh media and MTT solution and incubated at 37°C for 4 h. Thereafter, media-containing MTT were removed and formazan crystals were dissolved and absorbance was recorded in Biorad 550 microplate reader at 570 nm. The extent of cell death was expressed as the percentage of cell viability in comparison with control cells.
# (§3) All experiments were performed in triplicate. The IC50 values were calculated from the obtained dose-response curve by sigmoid fitting. Graphical results of citotoxicity were expressed as the average values ± SEM (standard error of mean). Comparison among multiple groups was analyzed by using a one-way ANOVA followed by Dunnet's post hoc tests to determine significant differences among the means. Difference between groups was considered statistically significant at P<0.05.
# [3] = system: non-cancerous human dermal fibroblasts (NHDF); assay: MTT cytotoxicity assay, NHDF; format: cell-based; conditions: NHDF cells, 48 h
# Procedure: as §1, with “All cells have been exposed to the six different compounds in five concentrations ranging from 10 nM to 100 µM during a period of exposition of 48 h.” left out
# Cell viability was studied quantifying the extent of the reduction of 3-(4,5-dimethylthiazol-2-yl)-2,5-diphenyltetrazolium bromide (MTT) according to a previously described procedure. […] Thereafter, media-containing MTT were removed and formazan crystals were dissolved and absorbance was recorded in Biorad 550 microplate reader at 570 nm. The extent of cell death was expressed as the percentage of cell viability in comparison with control cells. […]
# [4] = system: MCF-7, NHDF and P14 cells; assay: Fluorescence and confocal microscopy: uptake and sub-cellular localization; format: cell-based, human; conditions: 10 nM and 100 µM over 48 h
# Procedure: The timescale of trafficking of these compounds and their sub-cellular localization have been subsequently examined in MCF-7, NHDF and P14 cells using fluorescence microscopy. The cells are mounting on 0.1 mm thick glass cover slips by withdrawal of the respectively growth medium.
# The incubation times to test the ability compounds to penetrate into cells varied from 5 min to 48 h, and concentrations onto the cells were 10 nM and 100 µM by dissolving in appropriate medium. […] By analyzing each image recorded, all the compounds in all cells rapidly crossed the cell membrane (5 min) and induced a slight stain in the first minutes of incubation, depending on the type of cells. However, for incubation times longer than 30 min, it seems that this difference in the stained disappeared, thus appearing that the compounds were localized into an organelle of the cytoplasm.
# Besides, the subcellular localization of the compounds has been confirmed by co-staining with MitoTracker™ (25 nM, 45 min of incubation) and ER-Tracker™ (100 nM, 30 min of incubation) probes in MCF-7, NHDF and P14 cells, with compound concentrations of 10 nM and 100 nM and for incubation times of 1 h.
# After growth in the glass bottom culture dishes coated with collagen (1×10^4 cells/dish), the cells were incubated in the dark at 37°C with 10 nM of all the compounds and analyzed from 5 min to 48 h. […]
# [5] = system: human adult dermal skin fibroblasts (P14); assay: MTT cytotoxicity assay, P14; format: cell-based; conditions: P14 cells, 48 h; for IC50: Homo sapiens, Skin fibroblast; for reduction in cell viability (approximately 50%): 0.1 µM
# Procedure: as §1, §2, §3
# MCF-7 cells = assay: Mitochondrial membrane potential by flow cytometry (CMXRos / MitoTracker Green), MCF-7; format: cell-based, human; conditions: 10 µM, 48 h
# Source text: (§4) In order to study the effects of the compounds in mitochondrial membrane potential (MMP) of MCF-7 and NHDF cells, flow cytometry assay was employed to monitor any fluorescence changes in MitoTracker Green™ and red fluorescence of chloromethyl-X-rosamine (CMXRos), treatment with the uncoupler 2,4-dinitrophenol (2,4-DNP) to collapse the MMP. While MitoTracker Green™ staining was relatively unaffected by changes in MMP, the CMXRos staining of mitochondria is sensitive to MMP [30]. Also, laser scanning confocal microscopy was employed to analyze changes in mitochondrial localization by treated cells with uncoupler 2,4-DNP and staining with MitoTracker Green™ and compounds.
# (§5) The assessment of mitochondrial membrane potential was determined as described previously. Briefly, the cells were incubated with 200 nM of MitoTracker Green™ and 200 nM of Mitotracker Red (CMXRos) for 30 min prior to harvesting. The 2,4-dinitrophenol (DNP) was used as a mitochondrial uncoupler (300 µM, 2 h). The cells were treated with compounds concentration 10 µM for 48 h. The relative mitochondrial membrane potential was analyzed by flow cytometry by measuring the mean intensity of FL1 (green) and FL4 (red) channels. The FL4/FL1 ratio intensities of compounds treated and positive control (DNP) were compared and indicated if the compounds change the mitochondrial membrane potential of the cells.
# NHDF cells [6] = assay: Mitochondrial membrane potential by flow cytometry (CMXRos / MitoTracker Green), NHDF; format: cell-based, human; conditions: 10 µM, 48 h
# Source text: as §4, §5
compound,measurement,setting,value
"O=Cc1ccc2ccc3ccc(C=O)nc3c2n1 [1,10-phen, 1,10-phenanthroline-2,9-dicarbaldehyde, reference compound]",percentage of late apoptotic cells,NHDF cells [1],about 20%
same,IC50,[2],> 100 µM
c1cc2ccc3ccc4nc3c2nc1CNCCCCCCNCc1ccc2ccc3ccc(nc3c2n1)CNCCCCCCNC4 [[32]phen2N4],IC50,[3],78.9 ± 2.82 µM
same,signs of cytotoxicity in microscopy,[4],no relevant signs of cytotoxicity
same,IC50,[5],85.3 ± 1.79 µM
same,IC50,[2],< 0.01 µM
same,cytotoxicity,[2]; 10 nM to 10 µM,highly cytotoxic
c1cc2ccc3ccc4nc3c2nc1CNCCNCCNCc1ccc2ccc3ccc(nc3c2n1)CNCCNCCNC4 [[30]phen2N6],IC50,[2],> 100 µM
CN1CCCNCc2cccc(n2)CNCCCN(C)CCCNCc2cccc(n2)CNCCC1 [Me2[28]py2N6],IC50,[3],69.7 ± 3.02 µM
same,"effect on mitochondrial membrane potential (red fluorescence, FL4/FL1) versus positive control 2,4-DNP",MCF-7 cells,decrease of red fluorescence
same,IC50,[5],36.8 ± 4.68 µM
same,IC50,[2],> 100 µM
c1cc2ccc3ccc4nc3c2nc1CN1CCCCCCN(C4)Cc2ccc3ccc4ccc(nc4c3n2)CN2CCCCCCN(Cc3ccc4ccc5ccc(nc5c4n3)C2)Cc2ccc3ccc4ccc(nc4c3n2)C1 [cryptphen],"effect on mitochondrial membrane potential (FL4/FL1 ratio) versus positive control 2,4-DNP",NHDF cells [6],modify the MMP
same,reduction in cell viability (approximately 50%),[5],not observed
same,IC50,[2],> 100 µM
c1cc2ccc3ccc4nc3c2nc1CNCCCCCCNC4 [[16]phenN2],percentage of late apoptotic cells,NHDF cells [1],about 20%
same,"effect on mitochondrial membrane potential (FL4/FL1 ratio) versus positive control 2,4-DNP",NHDF cells [6],modify the MMP
same,"effect on mitochondrial membrane potential (red fluorescence, FL4/FL1) versus positive control 2,4-DNP",MCF-7 cells,decrease of red fluorescence
same,reduction in cell viability (approximately 50%),[5],not observed
same,IC50,[2],> 100 µM
